Holding throughout (assay type): cell-based
The test system of assay [1] is SNU638 human gastric cancer cells. The experiment in a line: SRB cytotoxicity test, SNU638. The settings on record: SRB assay, cultured 3 days. As to the method: (§1) A cytotoxicity test was performed using synthesized selenopsammaplin A and derivatives thereof (Lee S K et al […] Chem Biol Interact 115:215-28).
(§2) The cytotoxicity test was performed on a total of five representative cancer cell lines. The cytotoxicity of each compound was measured using an SRB assay method (human lung cancer cells, A549; human colon cancer cells, HCT116; human breast cancer cells, MDA-MB231; human liver cancer cells, SK-HEP-1; human gastric cancer cells, SNU638).
(§3) Each cell line was sub-cultured once or twice using Roswell Park Memorial Institute (RPMI) medium 1640 (RPMI 1640) or Dulbecco's Modified Eagle's Medium (DMEM) containing 10% fetal bovine serum (FBS) inactivated by heat, 100 units/mL of penicillin, 100 μg/mL of streptomycin, and 250 ng/mL of amphotericin B at 37° C. for 1 week under a 5% CO2 condition. All cells were […] in liquid nitrogen, and then passaged three or more times to be used in the experiment. The effects of compounds on cell growth were measured using a sulforhodamine B (SRB) method (Lee et al (1998) Chemico-Biol Interact 115:215-228).
(§4) Specifically, each human cancer cell line used in the present invention was sub-cultured in an RPMI medium containing 10% FBS, 1% PSF, and the like, and 10 μl of a sample dissolved in 10% DMSO and 190 μl (4-5×10^4 cells/ml) of the cell suspension were added to each well of a 96-well plate and cultured for 3 days. 190 μl of the cell suspension was added to at least 16 wells and cultured for 30 minutes, and used as a zero-day control. The cultured cells were fixed with 10% trichloroacetic acid (TCA) and then stained with an SRB solution, and the staining solution was dissolved with 10 mM Tris-base, and then absorbance at 515 nm was measured. Using the case of culturing in 10% DMSO as a control, cell viability according to each test material treatment was measured using Equation 1 below. Etoposide was used as a positive control. % Viability=(OD(sample)−OD(0-day))/(OD(10% DMSO)−OD(0-day))×100 [Equation 1]
(§5) Assuming that a control not-treated with the sample was set at 100%, the values of sample-treated groups were expressed as percentage with respect to the control, and each test material treatment results were obtained as the mean±SEM of two or three tests. The IC50 value is the concentration of the test material for a 50% survival rate.
(The SRB assay estimates cell density from bound dye.)

In assay [2] the test system is HCT116 human colon cancer cells. The experiment in a line: SRB cytotoxicity test, HCT116. The settings on record: SRB assay, cultured 3 days. Here is the method: as §1, §2, §3, §4, §5
Assay [3] has as its system SK-HEP-1 human liver cancer cells. The experiment in a line: SRB cytotoxicity test, SK-HEP-1. As to conditions: SRB assay, cultured 3 days. As to the method: as §1, §2, §3, §4, §5
Assay [4] has as its system MDA-MB231 human breast cancer cells. The experiment in a line: SRB cytotoxicity test, MDA-MB231. As to conditions: SRB assay, cultured 3 days. As to the method: as §1, §2, §3, §4, §5
Assay [5] concerns A549 human lung cancer cells. The experiment in a line: SRB cytotoxicity test, A549. As to conditions: SRB assay, cultured 3 days. Here is the method: as §1, §2, §3, §4, §5
The target in assay [6] is T1, DOT1L (Homo sapiens, UniProt Q8TEK3).
T1 construct: based on the finding that DOT1L was overexpressed in the breast cancer cell line; endogenous in cells
The experiment in a line: Inhibition of DOT1L methylation (H3K79) by western blotting. As to conditions: breast cancer cell line, FIG. 3. From the text:
As confirmed in Example 1, based on the finding that DOT1L was overexpressed in the breast cancer cell line, the effects of the derivatives of the present invention on the methylation of the histone 3 lysine 79 (H3K79) residue, which is an in-vivo target of DOT1L, were examined by western blotting.
A general note: In western blotting, separated proteins are transferred to a membrane and probed.

T1 sequence (Q8TEK3 whole entry): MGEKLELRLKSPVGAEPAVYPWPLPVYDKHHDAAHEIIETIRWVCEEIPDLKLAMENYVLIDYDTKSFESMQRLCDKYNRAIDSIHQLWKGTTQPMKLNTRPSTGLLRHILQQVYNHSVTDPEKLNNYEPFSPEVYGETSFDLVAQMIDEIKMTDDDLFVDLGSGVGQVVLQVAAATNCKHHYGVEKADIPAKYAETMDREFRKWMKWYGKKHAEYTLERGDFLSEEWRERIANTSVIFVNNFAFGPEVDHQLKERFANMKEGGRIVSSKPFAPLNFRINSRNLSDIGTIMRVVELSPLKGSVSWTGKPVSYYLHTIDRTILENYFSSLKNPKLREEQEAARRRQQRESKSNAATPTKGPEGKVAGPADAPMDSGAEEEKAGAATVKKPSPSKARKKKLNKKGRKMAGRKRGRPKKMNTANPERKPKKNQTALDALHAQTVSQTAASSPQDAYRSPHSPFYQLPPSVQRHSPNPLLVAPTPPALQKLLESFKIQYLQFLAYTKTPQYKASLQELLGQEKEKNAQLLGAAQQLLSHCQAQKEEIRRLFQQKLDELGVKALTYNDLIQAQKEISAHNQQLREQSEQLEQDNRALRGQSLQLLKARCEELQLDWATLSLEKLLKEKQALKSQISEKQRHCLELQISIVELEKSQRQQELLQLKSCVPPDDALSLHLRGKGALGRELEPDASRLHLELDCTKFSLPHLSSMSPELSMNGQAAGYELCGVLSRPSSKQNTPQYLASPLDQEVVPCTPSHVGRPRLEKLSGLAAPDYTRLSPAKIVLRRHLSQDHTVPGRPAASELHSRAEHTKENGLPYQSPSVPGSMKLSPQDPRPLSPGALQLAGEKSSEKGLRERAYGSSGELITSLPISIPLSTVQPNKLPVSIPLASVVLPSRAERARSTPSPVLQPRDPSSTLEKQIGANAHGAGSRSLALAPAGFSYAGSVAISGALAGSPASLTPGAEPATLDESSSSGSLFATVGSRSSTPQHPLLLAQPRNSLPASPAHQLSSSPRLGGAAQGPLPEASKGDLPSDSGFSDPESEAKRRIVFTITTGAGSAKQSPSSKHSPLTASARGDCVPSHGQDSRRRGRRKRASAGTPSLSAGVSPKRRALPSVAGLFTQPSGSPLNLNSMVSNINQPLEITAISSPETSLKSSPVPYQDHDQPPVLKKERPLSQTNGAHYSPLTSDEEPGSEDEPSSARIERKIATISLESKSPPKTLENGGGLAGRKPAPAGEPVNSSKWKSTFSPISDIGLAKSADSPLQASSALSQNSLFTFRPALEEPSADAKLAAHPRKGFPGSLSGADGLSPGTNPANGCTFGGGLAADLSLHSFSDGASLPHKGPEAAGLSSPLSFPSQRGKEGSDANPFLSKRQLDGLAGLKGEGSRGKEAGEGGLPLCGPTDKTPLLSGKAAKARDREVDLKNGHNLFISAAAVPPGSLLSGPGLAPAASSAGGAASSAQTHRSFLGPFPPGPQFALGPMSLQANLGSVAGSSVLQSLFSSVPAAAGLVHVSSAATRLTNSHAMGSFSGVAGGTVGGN

As usually defined, the IC50 is the midpoint of a concentration-inhibition curve. Lower therefore signals higher potency. Consider `O=C(NCC[Se][Se]CCNC(=O)/C(Cc1ccc(F)cc1)=N/O)/C(Cc1ccc(F)cc1)=N/O` [Compound 4, (2E,2′E)-N,N′-(diselenediylbis(ethane-2,1-diyl))bis(3-(4-fluorophenyl)-2-(hydroxyimino)propanamide)], for which the IC50 came out at 70 nM in assay [1]; 110 nM in assay [2]; 140 nM in assay [3]; 130 nM in assay [4]; 100 nM in assay [5].
The like results for “(2E,2′E)-N,N′-(diselenediylbis(ethane-2,1-diyl))bis(3-(3,4-difluorophenyl)-2-(hydroxyimino)propanamide) [Compound 5]” were, in that order, 50 nM, 180 nM, 270 nM, 420 nM and 330 nM.
In the case of “(2E,2′E)-N,N′-(diselenediylbis(ethane-2,1-diyl))bis(3-(4-benzyloxy)phenyl)-2-(hydroxyimino)propanamide) [Compound 10]”, the concentration for half-maximal inhibition (IC50) is 410 nM in assay [1]; 100 nM in assay [2]; 280 nM in assay [3]; 140 nM in assay [4]; 140 nM in assay [5]. The “inhibitory effect on H3K79 methylation” value in assay [6] was “excellent”.
As for `COc1cc([C@@H]2c3cc4c(cc3[C@@H](O[C@@H]3O[C@@H]5CO[C@@H](C)O[C@H]5[C@H](O)[C@H]3O)[C@H]3COC(=O)[C@H]23)OCO4)cc(OC)c1O` [Etoposide, reference compound], the IC50 in assay [1] (SNU-638, 72 h) stood at 200 nM; in assay [2] (HCT-116, 72 h), 1200 nM; in assay [3] (SK-HEP1, 72 h), 400 nM; in assay [4] (MDA-MB-231, 72 h), 8700 nM; in assay [5] (A549, 72 h), 300 nM.
In the case of “(2E,2′E)-N,N′-(diselenediylbis(ethane-2,1-diyl))bis(3-(3-fluoro-4-hydroxyphenyl)-2-(hydroxyimino)propanamide) [Compound 14]”, the 50% inhibitory concentration (IC50) in assay [1] is 20 nM; in assay [3], 130 nM; in assay [4], 190 nM; in assay [5], 20 nM.
For the compound `O=C(NCCSSCCNC(=O)/C(Cc1ccc(O)c(Br)c1)=N/O)/C(Cc1ccc(O)c(Br)c1)=N/O` [Psammaplin A], the concentration for half-maximal inhibition (IC50) in assay [1] was determined as 560 nM; in assay [2] it was 610 nM; in assay [3], 1290 nM; in assay [4], 1310 nM; in assay [5], 1760 nM.
Consider “(2E,2′E)-N,N′-(diselenediylbis(ethane-2,1-diyl))bis(3-(4-ethoxyphenyl)-2-(hydroxyimino)propanamide) [Compound 9]”, for which the half-inhibitory concentration (IC50) in assay [1] was found to be 30 nM; in assay [2], 70 nM; in assay [3], 180 nM; in assay [4], 200 nM; in assay [5], 50 nM. For the same compound, the “inhibitory effect on H3K79 methylation” value in assay [6] is on record as “excellent”.
On to “(2E,2′E)-N,N′-(diselenediylbis(ethane-2,1-diyl))bis(3-(4-tert-butyl)phenyl)-2-(hydroxyimino)propanamide) [Compound 12]”, for which the IC50 in assay [1] came to 280 nM; in assay [2], 130 nM; in assay [3], 190 nM; in assay [4], 100 nM; in assay [5], 100 nM. In addition, the “inhibitory effect on H3K79 methylation” value in assay [6] was “excellent”.
For “(2E,2′E)-N,N′-(diselenediylbis(ethane-2,1-diyl))bis(2-(hydroxyimino)-3-(naphthalene-2-yl)propanamide) [Compound 3]”, the IC50 amounted to 270 nM in assay [1]; 120 nM in assay [2]; 170 nM in assay [3]; 190 nM in assay [4]; 380 nM in assay [5].
“(2E,2′E)-N,N′-(diselenediylbis(ethane-2,1-diyl))bis(3-(3-chloro-4-hydroxyphenyl)-2-(hydroxyimino)propanamide) [Compound 13]”: the half-maximal inhibitory concentration (IC50) came to 10 nM in assay [1], 110 nM in assay [3], 170 nM in assay [4] and 20 nM in assay [5].
With `O=C(NCC[Se][Se]CCNC(=O)/C(Cc1ccc(O)c(Br)c1)=N/O)/C(Cc1ccc(O)c(Br)c1)=N/O` [Compound 1, (2E,2′E)-N,N′-(diselenediylbis(ethane-2,1-diyl))bis(3-(3-bromo-4-hydroxyphenyl)-2-(hydroxyimino)propanamide)], the half-maximal inhibitory concentration (IC50) in assay [1] worked out at 20 nM; in assay [3], 210 nM; in assay [4], 160 nM; in assay [5] it was 30 nM. Besides, the “inhibitory effect on H3K79 methylation” value in assay [6] is on record as “excellent”.
Regarding “(2E,2′E)-N,N′-(diselenediylbis(ethane-2,1-diyl))bis(2-(hydroxyimino)-3-(4-nitrophenyl)propanamide) [Compound 11]”, the half-inhibitory concentration (IC50) was 60 nM in assay [1]; 90 nM in assay [2]; 170 nM in assay [3]; 90 nM in assay [4]; 90 nM in assay [5]. The “inhibitory effect on H3K79 methylation” value in assay [6] is “excellent”.
As for `O=C(NCC[Se][Se]CCNC(=O)/C(Cc1ccc(Br)cc1)=N/O)/C(Cc1ccc(Br)cc1)=N/O` [Compound 8, (2E,2′E)-N,N′-(diselenediylbis(ethane-2,1-diyl))bis(3-(4-bromophenyl)-2-(hydroxyimino)propanamide)], the 50% inhibitory concentration (IC50) in assay [1] stood at 150 nM; in assay [2], 170 nM; in assay [4] it was 390 nM; in assay [5], 310 nM.
With “(2E,2′E)-N,N′-(diselenediylbis(ethane-2,1-diyl))bis(3-(4-chlorophenyl)-2-(hydroxyimino)propanamide) [Compound 6]”, the concentration for half-maximal inhibition (IC50) is 220 nM in assay [1]; 280 nM in assay [2]; 330 nM in assay [3]; 330 nM in assay [4]; 250 nM in assay [5].
Regarding “(2E,2′E)-N,N′-(diselenediylbis(ethane-2,1-diyl))bis(3,4-dichlorophenyl)-2-(hydroxyimino)propanamide) [Compound 7]”, the IC50 turned out to be 180 nM in assay [1]; 520 nM in assay [2]; 320 nM in assay [3]; 250 nM in assay [4]; 280 nM in assay [5].

(Values after patent US11903912B2, “Composition for preventing and treating breast cancer including selenopsammaplin A as active ingredients” (Seoul National University R & DB Foundation, priority 2019, dated 2024).)
